Laboratory results as given in PubChem BioAssay AID2008 (University of Pittsburgh Molecular Library Screening Center, 2009).
Active and inactive are the calls of the source. The rule behind the calls is not given here.

Tested on: Leishmania major promastigote growth inhibition
Experiment: antileishmanial activity against L. major promastigotes – EC50, dose response (AID 2008)

| Compound | EC50 |
| --- | --- |
| CC1(C)C(=O)C=C[C@]2(C)[C@H]3CC[C@@]4(C)[C@H](c5ccoc5)OC(=O)[C@H]5O[C@]54[C@]3(C)[C@H](O)C[C@@H]12 | 0.982 µM |
| COc1cc(NC(C)CCCN)c2ncccc2c1Oc1ccccc1 (stereo not drawn) | < 0.01 µM |
| CC1=C(C(=O)Nc2cc(-c3cccc(F)c3)[nH]n2)C2(CCCCC2)OC1=O | 0.379 µM |
| COc1ccc(-[n+]2c(C)cc(/C=C3\Sc4ccccc4N3C)cc2C)cc1 | < 0.01 µM |
| O=C(Nc1ccc(Cl)cn1)c1ccc([N+](=O)[O-])o1 | 0.205 µM |
| O=C(COc1ccccc1F)NC1CCN(Cc2ccccc2)CC1 | 0.14 µM |
| CN(C)CCCN=c1cc(-c2ccccc2)oc2ccc(Cl)cc12 | 1.64 µM |
| CCOC(=O)c1c(-c2ccc(F)cc2)csc1NC(=O)CCN1CCOCC1 | 0.176 µM |
| CC(=O)O[C@@H]1C[C@H]2C(C)(C)C(=O)C=C[C@]2(C)[C@H]2CC[C@@]3(C)[C@H](c4ccoc4)OC(=O)[C@H]4O[C@]43[C@@]21C | 0.731 µM |
| [O-][N+]1=c2ccc(Nc3ccccc3)cc2=NC12CCCCC2 | 0.84 µM |
| c1cnc2c(c1)ccc1cccnc12 | > 5 µM (inactive) |
| CSc1ccc(CNC2CN3CCC2CC3)cc1 (stereo not drawn) | 1.14 µM |
| COCCCNCCCCOc1ccc(Br)cc1Cl | 0.00173 µM |
| Cc1ccc(NC(=O)N2CCCN(Cc3ccc(F)cc3)C2)cc1C | 2.94 µM |
| CCCCCCCCCCCCCCCC[n+]1cccc(C(=O)N(CC)CC)c1 | 0.625 µM |
| COCCCN1CCN(c2nnc3n2-c2sc(Br)cc2C(c2ccccc2Cl)=NC3)CC1 | 0.595 µM |
| C=CCn1cccc(/C=C/C(=O)c2ccc(C(C)(C)C)cc2)c1=S | 1.79 µM |
| C[C@@]1(CO)[C@H](O)CC[C@@]2(C)[C@H]1CC[C@H]1C[C@@H]3C[C@@]12CC[C@]3(O)CO | 0.121 µM |
| COc1ccc(Cn2c(-c3ccc(OC)cc3)nc3ccccc32)cc1 | 1.11 µM |
| Cc1nc2c(=O)n(C)c(=O)nc-2n(C)n1 | 0.201 µM |
| Cc1cccc(OCCn2c(NC(=O)c3ccco3)nc3ccccc32)c1 | 1.87 µM |
| CCCOC(=O)CSC1=C(C#N)C(c2ccccc2Cl)CC(=O)N1 (stereo not drawn) | 0.122 µM |
| CC(C)CCN(C)C1CCN(S(=O)(=O)c2cccc(C(F)(F)F)c2)CC1 | 0.00917 µM |
